The target of one assay is T1, RAT 5-LIPOXYGENASE (Rattus norvegicus, UniProt P12527).
T1 construct: A suspension of rat neutrophils in buffer; endogenous in cells; host or cells: rat neutrophils (polymorphonuclear leukocytes)
T1 sequence (P12527 1-673): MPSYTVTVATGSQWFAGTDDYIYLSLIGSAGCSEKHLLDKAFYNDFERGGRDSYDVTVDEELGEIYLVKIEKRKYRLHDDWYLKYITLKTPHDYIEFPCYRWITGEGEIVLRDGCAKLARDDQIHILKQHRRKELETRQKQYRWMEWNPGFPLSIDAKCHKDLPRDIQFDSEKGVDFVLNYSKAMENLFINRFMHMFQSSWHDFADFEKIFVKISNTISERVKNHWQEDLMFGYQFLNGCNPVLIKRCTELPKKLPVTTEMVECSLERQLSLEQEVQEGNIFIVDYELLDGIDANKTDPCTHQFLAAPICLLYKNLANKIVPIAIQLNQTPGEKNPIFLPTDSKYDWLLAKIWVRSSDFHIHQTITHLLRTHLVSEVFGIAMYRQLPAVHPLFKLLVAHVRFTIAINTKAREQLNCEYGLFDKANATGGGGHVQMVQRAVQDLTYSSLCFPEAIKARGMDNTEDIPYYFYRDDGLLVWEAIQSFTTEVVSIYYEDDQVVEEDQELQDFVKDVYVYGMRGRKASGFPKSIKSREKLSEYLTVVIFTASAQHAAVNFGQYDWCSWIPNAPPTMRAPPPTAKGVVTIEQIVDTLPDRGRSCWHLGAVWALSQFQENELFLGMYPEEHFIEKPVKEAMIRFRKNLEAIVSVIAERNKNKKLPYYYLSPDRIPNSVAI
As to the kind of experiment: Biosynthesis of 5-HETE by rat polymorphonuclear leukocytes in vitro (inhibition of rat 5-lipoxygenase). The class given is cell-based. Particulars: rat neutrophils, A23187, 3 minutes at 30° C.; concentration at which 50% inhibition is observed; read-out: INHIBITION OF RAT 5-LIPOXYGENASE, I50. As for the experimental part: Protocol for the Biosynthesis of 5-HETE by Rat Polymorphonuclear Leukocytes In Vitro
A suspension of rat neutrophils in buffer is incubated for 3 minutes at 30° C. with [^14 C]-arachidonic acid (AA) and calcium ionophore A23187. Citric Acid (2M) NDGA (10 mM) is used to quench the reaction. Following the addition of a trace amount of (^3 H)-5-HETE together with an excess of unlabeled 5-HETE to each tube, the mixture is extracted with chloroform/methanol. The organic layer is washed with dilute acid and an aliquot is transferred to glass tubes and dried. The residue is dissolved in a small volume of chloroform and an aliquot is spotted on silica gel TLC sheets, which are developed with an ethyl acetate/isoctane/water/acetic acid solvent system. The 5-HETE spots are visualized under UV light, cut out and placed in scintillation vials for counting. After adjusting for the extraction efficiency, the amount (pmole) of [^14 C]-5-HETE in each of the tubes is quantitated. The net pmoles of 5-HETE are obtained by subtracting the pmoles of 5-HETE in the tubes containing buffer alone (blank) from the pmoles of 5-HETE in the tubes containing […]. The ability of the test compounds to modulate the activity of this enzyme is determined by a decrease or increase in the net amount of 5-HETE produced.
(§1) If the percentage of inhibition exceeds 50%, the compounds are then evaluated in terms of response over a range of concentrations. From a plot of response against concentration, the I50 value is obtained. The I50 value is the concentration at which 50% inhibition is observed.

A further assay deals with LTC4. Kind of assay: Antagonism of leukotriene C4 binding (guinea pig peripheral lung strips, contraction). The class given is cell-based. As to conditions: Cavia porcellus, leukotriene C4 usually 0.2 nM, 37° C., read-out: ANTAGONISM OF LTC4 BINDING, I50. As for the experimental part:
Protocol for Antagonism of Leukotrines C-4 Binding
Peripheral strips of guinea pig lungs are prepared and hung in tissue baths according to the procedure described by Drazen et al. (Proc. Nat'l. Acad. Sci., U.S.A. 77, 4354-4358, 1980). Male guinea pigs (Charles River, 250-400 g) are sacrificed by cervical dislocation and their lungs rapidly removed. The individual lobes are dissected free and rinsed in Assay Buffer (118 mM NaCl, 5.4 mM KCl, 2.5 mM CaCl2, 25 mM […], 1 mM MgSO4, 1 mM NaH2 PO4, 11 mM glucose) which is continuously aerated with 95% oxygen/5% carbon dioxide. After the lobes are extensively rinsed, a strip of lung tissue, approximately 2 mm thick and 5-8 cm long, is cut off the sharpest and most peripheral portion of each lobe. The peripheral edge is cut almost completely around the outside of the lobe so that a U-shaped strip is obtained. These strips are rinsed in Assay Buffer and then connected with surgical silk thread to the support rods of the water jacketed tissue baths (10 ml chambers). The other ends of the strips are connected to Gould UC3 pressure transducers which had been previously calibrated. The tissue baths are aerated with 95% oxygen/5% carbon dioxide and maintained at 37° C. The tension on these strips are adjusted to 500 mg. The tissues are initially washed with fresh buffer every 5-10 minutes for about 30 minutes and thereafter washed with fresh assay buffer at least every 20 minutes.
After the tissue had been repeatedly washed and allowed to equilibrate in the tissue baths, they are challenged with 1 μM histamine to standardize the contractions for each tissue.
Responses of each tissue to a predetermined concentration (usually 0.2 nM) of leukotriene C4 are then obtained. Compounds are then tested for their ability to antagonize to leukotriene C4 immediately upon challenge.
as §1

Regarding `CCCOc1ccc(CC(=O)N[C@H](Cc2ccccc2)C(=O)OC)cc1Cl` [3-Chloro-4-n-propyloxyphenylacetyl-D-phenylalanine methyl ester], the values for the IC50 at RAT 5-LIPOXYGENASE and in the assay with LTC4 were 0.8 µM and 9 µM, respectively.
Consider `C#CCOc1ccc(CC(=O)N[C@H](Cc2ccccc2)C(=O)OC)cc1Cl` [3-Chloro-4-propargyloxyphenylacetyl-D-phenylalanine methyl ester], for which the IC50 at RAT 5-LIPOXYGENASE came out at 0.5 µM; in the assay with LTC4 it was 12 µM.
Taken in the same sequence, the figures for `CN(CC(O)c1ccccc1)C(=O)Cc1ccc(OCCc2ccccc2)c(Cl)c1` (centres unmarked) [N--[3-Chloro-4-phenylethyloxyphenylacetyl]-N--methyl-2-hydroxy-2-phenyl-ethyl-amine] were 3 µM and 5 µM.
For `C=CCOc1ccc(CC(=O)N(C)CCc2ccccc2)cc1Cl` [N--[4-Alloyoxy-3-chlorophenylacetyl]-N--methyl-2-phenylethylamine], the IC50 at RAT 5-LIPOXYGENASE was 2.4 µM; in the assay on LTC4 it was 3 µM.

Values taken from patent US4579866A, “Phenylacetamides as anti-allergy, anti-asthma and anti-inflammatory agents” (USV Pharmaceutical Corp., priority 1984, dated 1986).
